From ChEMBL document CHEMBL1201862, “PubChem BioAssay data set” (2004) come the findings set out here.

The target in assay [1] is Paired box protein Pax-8 (Homo sapiens, UniProt Q06710). As to the kind of experiment: PAX8 transcriptional activity inhibition in RMG-I – RMG-I cells, luciferase, cherry-pick, dose response (AID 687027).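 Also: luciferase reporter driven by Pax8 target thyroperoxidase promoter measured by SteadyGlo luminescence.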 The format is functional, cell-based.
A short description of assay [2]: Trypanosoma cruzi growth suppression in host cells – NIH3T3 host cells, beta-gal luminescence, confirmation (AID 2044).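 Also: intracellular parasites grown in NIH/3T3 mouse fibroblasts as host cells; luminescent beta-galactosidase reporter signal from transgenic T. cruzi replicating inside host cells; inhibitors lower the luminescence signal.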 The format is functional, cell-based.
Assay [3] concerns the target Mitogen-activated protein kinase kinase kinase kinase 2 (Homo sapiens, UniProt Q12851). It is filed as functional.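 Also: measured as one member of a kinome-wide kinase panel, with MAP4K2 as the panel entry.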
The target of assay [4] is cAMP-dependent protein kinase catalytic subunit alpha (Homo sapiens, UniProt P17612). It is filed as functional.
Assay [5] addresses Mast/stem cell growth factor receptor Kit (Homo sapiens, UniProt P10721). It is filed as functional.
Assay [6] has as its target Cyclin-dependent kinase 9 (Homo sapiens, UniProt P50750). The format is functional.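 Also: value from the CDK9 entry of a kinome-spanning kinase panel.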
The target in assay [7] is Platelet-derived growth factor receptor alpha (Homo sapiens, UniProt P16234). As to the kind of experiment: Navigating the Kinome. Panel member name: PDGFRA. It is filed as functional.
Assay [8] deals with Mitogen-activated protein kinase 10 (Homo sapiens, UniProt P53779). As to the kind of experiment: Navigating the Kinome. Panel member name: MAPK10. It is filed as functional.
Assay [9] deals with Death-associated protein kinase 3 (Homo sapiens, UniProt O43293). It is filed as functional.
Assay [10] has as its target Dual specificity mitogen-activated protein kinase kinase 1 (Homo sapiens, UniProt Q02750). As to the kind of experiment: Navigating the Kinome. Panel member name: MAP2K1. It is filed as functional.

Activity calls are given as the source filed them. Some results are limits rather than exact numbers.

Platelet-derived growth factor receptor alpha, sequence (P16234 whole entry): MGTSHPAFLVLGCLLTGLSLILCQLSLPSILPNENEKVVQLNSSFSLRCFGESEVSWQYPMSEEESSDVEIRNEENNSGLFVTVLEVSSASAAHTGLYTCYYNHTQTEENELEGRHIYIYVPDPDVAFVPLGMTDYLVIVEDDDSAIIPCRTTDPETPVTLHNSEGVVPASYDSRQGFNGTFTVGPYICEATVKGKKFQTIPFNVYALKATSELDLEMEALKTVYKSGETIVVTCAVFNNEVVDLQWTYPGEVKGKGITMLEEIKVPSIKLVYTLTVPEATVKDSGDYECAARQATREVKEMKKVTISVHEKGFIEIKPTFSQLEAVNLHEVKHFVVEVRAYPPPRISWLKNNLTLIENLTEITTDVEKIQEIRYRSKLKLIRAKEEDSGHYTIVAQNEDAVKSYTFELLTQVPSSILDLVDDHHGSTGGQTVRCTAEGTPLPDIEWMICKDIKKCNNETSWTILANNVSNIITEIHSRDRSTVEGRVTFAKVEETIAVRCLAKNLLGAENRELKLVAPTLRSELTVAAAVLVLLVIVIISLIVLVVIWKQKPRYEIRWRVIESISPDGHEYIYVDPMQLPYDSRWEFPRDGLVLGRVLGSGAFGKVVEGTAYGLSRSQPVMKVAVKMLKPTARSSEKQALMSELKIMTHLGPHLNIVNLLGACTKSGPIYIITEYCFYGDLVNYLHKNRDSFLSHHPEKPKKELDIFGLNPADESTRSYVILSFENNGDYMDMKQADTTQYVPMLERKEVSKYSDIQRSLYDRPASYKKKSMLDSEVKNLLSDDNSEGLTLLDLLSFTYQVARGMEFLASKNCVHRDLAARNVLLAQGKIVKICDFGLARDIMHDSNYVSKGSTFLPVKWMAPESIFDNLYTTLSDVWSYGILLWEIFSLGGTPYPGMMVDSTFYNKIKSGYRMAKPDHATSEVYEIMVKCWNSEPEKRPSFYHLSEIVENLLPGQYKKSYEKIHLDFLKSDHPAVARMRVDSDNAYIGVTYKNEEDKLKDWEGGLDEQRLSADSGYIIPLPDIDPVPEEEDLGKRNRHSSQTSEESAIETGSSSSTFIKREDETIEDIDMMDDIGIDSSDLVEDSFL
Mast/stem cell growth factor receptor Kit, sequence (P10721 whole entry): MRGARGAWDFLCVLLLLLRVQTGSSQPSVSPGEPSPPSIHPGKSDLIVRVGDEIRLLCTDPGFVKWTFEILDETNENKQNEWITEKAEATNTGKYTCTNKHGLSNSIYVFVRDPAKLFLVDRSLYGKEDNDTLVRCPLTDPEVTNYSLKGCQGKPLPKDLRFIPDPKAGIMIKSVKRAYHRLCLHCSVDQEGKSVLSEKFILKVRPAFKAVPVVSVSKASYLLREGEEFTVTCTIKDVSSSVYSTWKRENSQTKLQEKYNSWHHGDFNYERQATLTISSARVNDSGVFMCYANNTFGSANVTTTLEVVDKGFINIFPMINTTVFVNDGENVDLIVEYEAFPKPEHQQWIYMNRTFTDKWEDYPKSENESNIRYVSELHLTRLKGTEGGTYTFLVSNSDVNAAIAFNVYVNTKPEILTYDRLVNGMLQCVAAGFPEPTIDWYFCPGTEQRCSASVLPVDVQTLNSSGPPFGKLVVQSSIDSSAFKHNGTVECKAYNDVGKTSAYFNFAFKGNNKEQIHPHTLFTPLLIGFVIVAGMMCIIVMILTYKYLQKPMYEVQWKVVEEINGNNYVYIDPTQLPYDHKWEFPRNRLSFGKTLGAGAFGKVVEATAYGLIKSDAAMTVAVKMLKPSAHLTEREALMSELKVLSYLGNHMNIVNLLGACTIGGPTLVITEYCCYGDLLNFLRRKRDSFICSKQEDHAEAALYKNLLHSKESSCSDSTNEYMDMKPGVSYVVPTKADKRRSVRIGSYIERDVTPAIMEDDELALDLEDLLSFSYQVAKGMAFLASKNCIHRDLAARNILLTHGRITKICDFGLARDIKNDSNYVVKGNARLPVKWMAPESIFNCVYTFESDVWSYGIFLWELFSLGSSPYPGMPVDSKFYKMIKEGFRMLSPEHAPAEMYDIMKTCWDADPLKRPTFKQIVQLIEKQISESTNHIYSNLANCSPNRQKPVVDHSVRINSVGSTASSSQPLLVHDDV
Mitogen-activated protein kinase 10, sequence (P53779 whole entry): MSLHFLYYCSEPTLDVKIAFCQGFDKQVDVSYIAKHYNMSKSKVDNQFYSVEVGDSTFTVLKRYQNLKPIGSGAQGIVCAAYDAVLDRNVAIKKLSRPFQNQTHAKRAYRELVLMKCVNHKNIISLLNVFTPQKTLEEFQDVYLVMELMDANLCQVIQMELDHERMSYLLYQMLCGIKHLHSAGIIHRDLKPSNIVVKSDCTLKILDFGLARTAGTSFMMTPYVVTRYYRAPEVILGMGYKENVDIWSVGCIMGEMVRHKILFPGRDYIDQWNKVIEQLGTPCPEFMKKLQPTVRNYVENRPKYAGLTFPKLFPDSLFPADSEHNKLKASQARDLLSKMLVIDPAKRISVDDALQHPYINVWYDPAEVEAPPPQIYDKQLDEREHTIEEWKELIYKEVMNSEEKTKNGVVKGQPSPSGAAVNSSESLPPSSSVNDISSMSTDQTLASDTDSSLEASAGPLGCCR
Dual specificity mitogen-activated protein kinase kinase 1, sequence (Q02750 whole entry): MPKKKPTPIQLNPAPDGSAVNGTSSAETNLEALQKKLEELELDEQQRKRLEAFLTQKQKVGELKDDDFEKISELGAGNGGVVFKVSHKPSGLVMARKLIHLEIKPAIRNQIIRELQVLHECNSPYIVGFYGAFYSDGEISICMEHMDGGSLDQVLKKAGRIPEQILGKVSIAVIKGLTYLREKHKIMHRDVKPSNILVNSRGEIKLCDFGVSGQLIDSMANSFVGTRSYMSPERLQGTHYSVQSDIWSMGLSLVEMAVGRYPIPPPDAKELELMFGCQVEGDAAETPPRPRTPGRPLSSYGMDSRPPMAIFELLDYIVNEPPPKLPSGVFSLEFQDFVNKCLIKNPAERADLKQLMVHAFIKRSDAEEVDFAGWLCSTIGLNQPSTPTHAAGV
Mitogen-activated protein kinase kinase kinase kinase 2, sequence (Q12851 whole entry): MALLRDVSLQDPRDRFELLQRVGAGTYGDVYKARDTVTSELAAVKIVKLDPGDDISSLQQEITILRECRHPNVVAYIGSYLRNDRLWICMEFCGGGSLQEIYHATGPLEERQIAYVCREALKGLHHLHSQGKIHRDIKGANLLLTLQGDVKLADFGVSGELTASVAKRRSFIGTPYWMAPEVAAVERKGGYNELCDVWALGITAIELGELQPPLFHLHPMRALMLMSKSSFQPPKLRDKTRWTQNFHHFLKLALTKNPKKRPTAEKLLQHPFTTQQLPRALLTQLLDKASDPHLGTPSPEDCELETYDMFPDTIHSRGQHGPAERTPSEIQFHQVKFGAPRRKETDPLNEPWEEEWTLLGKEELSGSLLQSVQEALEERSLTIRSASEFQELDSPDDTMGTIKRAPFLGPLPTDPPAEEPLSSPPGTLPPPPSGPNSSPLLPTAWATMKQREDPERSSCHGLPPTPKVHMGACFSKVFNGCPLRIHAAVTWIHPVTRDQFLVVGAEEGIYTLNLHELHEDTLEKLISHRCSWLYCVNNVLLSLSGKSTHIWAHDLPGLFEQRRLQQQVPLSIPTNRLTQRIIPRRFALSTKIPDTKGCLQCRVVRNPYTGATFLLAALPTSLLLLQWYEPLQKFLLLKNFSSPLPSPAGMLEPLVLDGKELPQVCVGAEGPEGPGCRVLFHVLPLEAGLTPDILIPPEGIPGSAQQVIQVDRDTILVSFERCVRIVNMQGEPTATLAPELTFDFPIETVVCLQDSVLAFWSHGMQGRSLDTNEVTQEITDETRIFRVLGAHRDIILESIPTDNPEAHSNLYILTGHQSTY
Death-associated protein kinase 3, sequence (O43293 whole entry): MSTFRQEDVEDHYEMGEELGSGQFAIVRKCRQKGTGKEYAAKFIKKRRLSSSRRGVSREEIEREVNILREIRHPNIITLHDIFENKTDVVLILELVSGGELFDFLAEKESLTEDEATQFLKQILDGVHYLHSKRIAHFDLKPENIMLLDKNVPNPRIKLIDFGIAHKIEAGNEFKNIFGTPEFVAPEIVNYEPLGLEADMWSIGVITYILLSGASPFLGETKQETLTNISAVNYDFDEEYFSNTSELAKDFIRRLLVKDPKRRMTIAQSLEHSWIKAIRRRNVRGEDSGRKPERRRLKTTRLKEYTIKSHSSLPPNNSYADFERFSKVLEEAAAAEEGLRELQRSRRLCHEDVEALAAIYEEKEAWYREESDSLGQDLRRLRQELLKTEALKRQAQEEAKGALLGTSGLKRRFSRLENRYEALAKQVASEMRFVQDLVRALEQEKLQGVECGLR
Cyclin-dependent kinase 9, sequence (P50750 whole entry): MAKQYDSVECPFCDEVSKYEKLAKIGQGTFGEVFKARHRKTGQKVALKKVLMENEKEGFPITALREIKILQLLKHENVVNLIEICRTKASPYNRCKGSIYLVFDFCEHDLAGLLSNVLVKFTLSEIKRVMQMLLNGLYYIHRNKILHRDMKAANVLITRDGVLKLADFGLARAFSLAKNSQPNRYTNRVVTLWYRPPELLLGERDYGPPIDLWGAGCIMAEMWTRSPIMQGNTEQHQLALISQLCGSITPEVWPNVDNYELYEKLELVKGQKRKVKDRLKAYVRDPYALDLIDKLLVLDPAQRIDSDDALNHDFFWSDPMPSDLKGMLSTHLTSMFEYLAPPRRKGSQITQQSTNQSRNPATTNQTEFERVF
Paired box protein Pax-8, sequence (Q06710 whole entry): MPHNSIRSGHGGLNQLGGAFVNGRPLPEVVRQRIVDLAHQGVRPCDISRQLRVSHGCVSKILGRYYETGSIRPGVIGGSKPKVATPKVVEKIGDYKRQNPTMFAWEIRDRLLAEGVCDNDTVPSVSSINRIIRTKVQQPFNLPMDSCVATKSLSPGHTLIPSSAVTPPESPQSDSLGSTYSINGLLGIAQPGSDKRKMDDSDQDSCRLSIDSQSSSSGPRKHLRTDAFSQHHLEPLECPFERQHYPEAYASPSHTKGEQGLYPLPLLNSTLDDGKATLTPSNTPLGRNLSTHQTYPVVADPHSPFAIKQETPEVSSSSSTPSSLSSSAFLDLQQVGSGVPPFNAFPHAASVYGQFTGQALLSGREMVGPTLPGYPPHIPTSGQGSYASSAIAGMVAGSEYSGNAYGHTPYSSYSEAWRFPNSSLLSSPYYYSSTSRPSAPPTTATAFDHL

With `O=C(NC1=C(NC2CCS(=O)(=O)C2)C(=O)c2ccccc2C1=O)c1ccccc1` (stereo not given), the AC50 in assay [1] was 6.4 µM (active).
In the case of `CCCC(=O)NC(c1ccc(N(C)C)cc1)c1ccc2cccnc2c1O` (stereo not given), in assay [2], the EC50 was 480 nM (active).
Consider `O=C1NC(=O)C(c2c[nH]c3ccccc23)=C1c1nc(N2CCNCC2)nc2ccccc12`, for which the Ki is 1 µM (active) in [3]; 31.6 nM (active) in [4]; > 6.31 µM (inactive) in [5]; 316 nM (active) in assay [6]; > 2.51 µM (inactive) in assay [7]; > 3.16 µM (inactive) in assay [8]. In addition, the Ki is 631 nM (active) in assay [9] and 794 nM (active) in assay [10].

The AC50 is the concentration at which the activity in the assay is half-maximal. By EC50 is commonly meant the concentration that produces a half-maximal response. In general, Ki refers to the dissociation constant of the complex between target and ligand, obtained from inhibition or displacement.
